We go through one molecule from patent US20150366839A1, “Schisantherin A for the treatment of neurodegenerative diseases” (priority 2014, published 2015).

The test system of series [1] is SH-SY5Y cells. Kind of series: MTT cytotoxicity of the five lignans. The class given is cell-based. On the procedure: (§1) Human neuroblastoma SH-SY5Y cells were purchased from the American Type Culture Collection (ATCC, Manassas, Va., USA) and cultured in a humidified 5% (v/v) CO2 atmosphere in 37° C. in Dulbecco's Modified Eagle Medium (DMEM) (Life technologies, NY, USA) supplemented with 10% FBS, 1% penicillin (100 U/mL) and streptomycin (100 μg/mL). All experiments were carried out 48 h after the cells were seeded.
Cell viability was determined by 3-(4,5-dimethyl-2-thiazolyl) 2,5-diphenyl-2H-tetrazolium bromide (MTT) assay (Sigma-Aldrich, USA). SH-SY5Y cells were seeded in 96-well plates (1×10^4 cells/well) for 48 h. SH-SY5Y cells were pre-treated with different concentrations of the five lignans (i.e. Schizandrin A, Schizandrin B, SC, Schizandrol A and SchiA) for 12 h and the cell viability was checked by MTT assay. Otherwise, SH-SY5Y cells were pre-treated with different concentrations of the five lignans for 12 h and then exposed to 400 μM 6-OHDA for 4 h. Cells were incubated at 37° C. for 4 h in 0.5 mg/mL MTT solution (prepared in serum free DMEM medium). The medium was then removed, and 100 μL of DMSO was added to each well to dissolve the violet-formazan crystals. The absorbance at 570 nm with 655 nm as a reference wavelength was measured by a multi-label counter (Wallac VICTOR3TMV, Perkin Elmer, Netherlands). Cell viability was expressed as a percentage of the value of the cells without 6-OHDA treatment. The LC50 and EC50 were calculated by GraphPad Prism V5.0 (GraphPad Software, Inc., San Diego, Calif.).
To evaluate the cytotoxicity of five selected lignans of S. chinensis, SH-SY5Y cells were treated with various concentrations of the tested compounds for 12 h and the cell viability was measured using the MTT assay.
(§2) To evaluate the cytotoxicity of five selected lignans of S. chinensis, SH-SY5Y cells were treated with various concentrations of the tested compounds for 12 h and the cell viability was measured using the MTT assay. […] To further study the neuroprotective activities of the five lignans in vitro, cells were treated with various concentrations of the tested compounds for 12 h before exposed to MPP^+. […] Values represent mean±S.D. ###P<0.005 versus control group; *p<0.05, **p<0.01 and *** p<0.005 versus MPP group. […] The therapeutic index of SchiA and SC were 14.9 and 8.8, respectively.

The test system of series [2] is SH-SY5Y cells. Kind of series: MTT neuroprotection against MPP+-induced cell damage. The class given is cell-based. Here is the method: as §1
In another study, SH-SY5Y cells were seeded in 96-well plates (1×10^4 cells/well) for 48 h. SH-SY5Y cells were pre-treated with different concentrations of the five lignans for 12 h and the cell viability was checked by MTT assay. SH-SY5Y cells were pre-treated with different concentrations of the five lignans for 12 h and then exposed to 2 mM MPP or vehicle for 36 h. Cells were incubated at 37° C. for 4 h in 0.5 mg/mL MTT solution (prepared in serum free DMEM medium). The medium was then discarded and 100 μL of DMSO was added to each well to dissolve the violet-formazan crystals. The absorbance at 570 nm with 655 nm as a reference wavelength was measured by a multi-label counter (Wallac VICTOR3TMV, Perkin Elmer, Netherlands). Cell viability was expressed as a percentage of the value of the cells without MPP treatment. The LC50 and EC50 were calculated by GraphPad Prism V5.0 (GraphPad Software, Inc., San Diego, Calif.).
as §2
The inventors also investigated the contribution of the PI3K/Akt pathway in the neuroprotective effects of SchiA. The inventors measured phosphorylation-Akt (p-Akt) levels after pre-treated with 60 μM SchiA for 12 h and then exposed to 2 mM MPP for another 36 h. […] And MPP^+-induced down-regulation of Akt expressions was inhibited by SchiA treatment. […] To further validate whether the activation of PI3K/Akt signaling pathway, the inventors determined the blocking effect of PI3K/Akt inhibitor such as AKT inhibitor IV on the in vitro neuroprotective effect of SchiA. SH-SY5Y cells were pre-incubated with Akt inhibitor IV (2 μM) for 1 h and then treated with SchiA for 12 h. Drug-treated cells were further treated with 2 mM MPP for another 36 h, MTT assay was used to determinate cell viability.

For series [3], the system named is GSK3β. Nature of the series: GSK3β phosphorylation (Ser9) after 6-OHDA, Western blot. The class given is cell-based, Human. Conditions: pretreated 12 h, then 400 μM 6-OHDA 4 h. Here is the method:
After treatment, SH-SY5Y cells were washed three times with PBS and then lysis with RIPA lysis buffer containing 1% PMSF and 1% Protease Inhibitor Cocktail and incubated for 30 min on ice. Cell lysates were centrifuged at 12,500 g for 20 min at 4° C. The supernatant was separated and the amount of protein was determined using the BCA protein assay kit (Thermo Scientific Pierce, USA). Protein samples (30 μg) were separated by SDS-PAGE (10% (w/v)) polyacrylamide gel and then transferred to a polyvinylidene difluoride (PVDF) membrane (Bio-Rad, Hercules, Calif.). Subsequently, the membrane was blocked with 5% (v/v) non-fat milk in PBST (PBS containing 0.1% Tween 20) for 1 h at room temperature. The blots were incubated overnight at 4° C. with primary antibodies. After three washes with PBST, the membranes were incubated with horseradish peroxidase-conjugated secondary antibodies (1:2000) in PBST with 5% non-fat milk for 1 h at room temperature. After repeated washes, proteins were visualized with an ECL advanced western blotting detection kit. Photographs of protein bands were taken by a Molecular Imager ChemiDoc XRS (Bio-Rad, Hercules, Calif.). Quantitative assessment of protein bands was done with Gel Doc™ XRS equipped with Quantity One software. […]

Series [4] concerns zebrafish larvae. Format: in vivo. Conditions: 2.5-10 μM with 250 μM 6-OHDA, 4 days, 10 min session. Here is the method:
The wild type zebrafish was used for this study.
Zebrafish behaviour was analyzed using a digital video tracking system (Viewpoint ZebraLab system). The system consists of a digital video camera connected to a computer system running the analysis software ZebraLab Man Rev 3.6B.
Moreover, 6-OHDA treatment also markedly altered the swimming behavior of zebrafish. […] Values in FIG. 9 represent the mean±SEM of 12 fish larvae per group of 3-time independent experiments. ###P<0.005 versus control group; *p<0.05, **p<0.01 and *** p<0.005 versus 6-OHDA group. […] The total swimming distance in 10 min travelled by the zebrafish larvae was decreased after exposure to 6-OHDA.

Regarding `COc1cc2c(c(OC)c1OC)-c1c(cc3c(c1OC)OCO3)C[C@H](C)[C@](C)(O)[C@H]2OC(=O)c1ccccc1` [SchiA, Schisantherin A], half-maximal cytotoxicity in series [1] (CC50) was put at 121 µM. Further, the EC50 in series [2] (pre-treated 12 h, then 2 mM MPP+ 36 h) stood at 8.1 µM. For the same molecule, the “protection against MPP+-induced cell damage (cell viability)” value in series [2] (various concentrations 12 h before MPP+) was “protect against MPP^+-induced cell damage in a dose-dependent manner”. Also, the “6-OHDA-induced repression of GSK3β phosphorylation at serine 9” value in series [3] is on record as “completely blocked”. Further, the “6-OHDA-induced reduction of total distance of movement” value in series [4] is reported as “inhibited 6-OHDA-induced reduction of total distance of movement by zebrafish in a dose dependent manner”.
